SMILES strings stand for the structures. Read-outs that look alike come from different tables or passages of the source.

The target in experiment [1] is T1, In Vitro Assembled Tau filaments (full length tau 4R2N, T40 isoform) (Homo sapiens, UniProt P10636).
T1 construct: full length tau monomer (4R2N, T40 isoform)
The experiment is described as follows: Displacement binding assay with in vitro assembled tau filaments. The conditions noted are these: 0.4 uM tau filaments. On the procedure:
In Vitro assembled tau filaments were prepared similarly to Barghorn et al, Methods Mol Biol. 2005, 299, 35-51.
Briefly, Twenty micromolar (uM) of full length tau monomer (4R2N, T40 isoform), was incubated at 37 degrees shaking for 14 days with 50 uM heparin, 2 mM DTT, and 0.04% sodium azide in 100 mM Sodium Acetate (NaOAC) buffer pH7.0. All concentrations listed are final concentrations. Samples of the mixture were taken at 0, 10, and 14 days, and filament formation was examined using Thioflavin T binding compared to a control sample of filaments.
For the displacement binding assay, compound dilutions (1000×) were added into the 96-well plate (150 nL per well). 100% (1 uM self-block (unlabeled Compound—Example 1 or Example 4 dependent on the ^3H-labeled input compound—Example 6 or 7, respectively)) and 0% (DMSO) controls were included in each assay plate. In Vitro Assembled Tau filaments diluted in assay buffer (PBS+0.1% BSA) were added at a final concentration of 0.4 uM per well. Subsequently, either ^3H compound of Example 7 or ^3H compound of Example 6 was added to each well at a final concentration of 8 nM. Incubation was carried out at room temperature (25° C.) for 90 minutes, and then the assay samples were filtered onto GF/B filter plates that had been blocked at least 1 hour with 50 uL 0.2% PEI using a PerkinElmer Filtermate 96-well plate harvester, washing 6 times with ice cold buffer (5 mM Tris, pH 7.4). Plates were dried in a vacuum oven at 37° C. for 1 hour, then plates were sealed on the back, and 50 ul of Microscint-20 was added to each well. The tops of the plates were sealed, and then plates were read in a PerkinElmer TopCount. Data analysis was performed using internally developed software (Assay Data Analyzer).

The next experiment concerns amyloid plaques. Put plainly: In vitro autoradiography, human AD brain cortex slice (amyloid plaques, 6E10 stain on adjacent slice). Type of experiment: binding. The conditions noted are these: adjacent slice 6E10 positive. On the procedure: (§1) To assess presence of amyloid plaques and NFTs in the tested human brain samples, the adjacent human AD brain slices were used for autoradiography (ARG) and immunohistochemistry (IHC) studies. ARG was done using isotopically labeled compounds which bind selectively to amyloid plaques or NFTs. IHC was performed with antibodies for amyloid-beta (Aβ) (6E10 (Covance)) and phosphorylated tau (p-tau) (PHF6 (Covance)). Tissue homogenate binding was performed using human AD brain homogenates of cerebral cortex. Human brains from donor without neurological disorder were used as control in the same study. […]
(§2) The frozen human brain samples of Alzheimer's disease (AD) and non-AD were purchased from Analytic Biological Services Inc. Frozen brain slices (20 μm thickness) were prepared using a cryostat (Leica CM3050) and kept in sequential order. […] Total binding of radioligand in a brain slices was defined in the absence of competitor, and non-specific binding (NSB) was determined in the presence of competitor (1.0 μM unlabeled self block). […] After one week exposure, the plates were scanned in Fuji BAS 5000 Scanner, and the scanned images were analyzed using MCID 7.0 software. [^3H]-microscales (Amersham Biosciences, GE), were used for quantification of radioligand binding density. FIGS. 3 and 4 have ARG images detected through this method.

A further experiment has as its system NFTs. Put plainly: In vitro autoradiography, human AD brain slice, hippocampus (NFTs, PHF6 stain on adjacent slice). Format: binding. The procedure: as §1, §2
Setting [2] is: radioligand [3H] Example 7 at 8 nM, read-out: IC50, displacement of [3H] compound of Example 7 from in vitro assembled tau filaments.

T1 sequence (P10636 1-441 isoform P10636-8): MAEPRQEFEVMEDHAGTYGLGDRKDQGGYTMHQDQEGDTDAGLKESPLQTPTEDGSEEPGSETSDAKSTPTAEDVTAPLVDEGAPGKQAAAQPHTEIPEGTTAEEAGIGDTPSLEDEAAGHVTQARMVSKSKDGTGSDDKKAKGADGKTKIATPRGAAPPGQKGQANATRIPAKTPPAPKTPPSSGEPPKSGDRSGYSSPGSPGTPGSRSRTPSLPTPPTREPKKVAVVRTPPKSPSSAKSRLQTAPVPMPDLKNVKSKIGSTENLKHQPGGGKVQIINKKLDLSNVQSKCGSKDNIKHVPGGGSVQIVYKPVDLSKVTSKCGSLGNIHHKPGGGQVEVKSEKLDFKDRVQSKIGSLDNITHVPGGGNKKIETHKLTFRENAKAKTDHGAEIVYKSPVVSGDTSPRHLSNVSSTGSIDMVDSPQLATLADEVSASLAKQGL

A word on the IC50: it is the concentration that gives 50% inhibition. On to `COc1ccccc1NC(=O)Nc1ccc(-c2cn(C)c3cnccc23)cc1` [Example 1, 1-(2-methoxyphenyl)-3-(4-(1-methyl-1H-pyrrolo[2,3-c]pyridin-3-yl)phenyl)urea], for which the IC50 is 3 nM in experiment [1] (radioligand [3H] Example 6 at 8 nM, self-block, read-out: apparent IC50, inhibition of [3H] compound of Example 6 binding to in vitro assembled filaments) and 13.6 nM in experiment [1] (setting [2]).

With `COc1ccccc1NC(=O)Nc1ccc(-c2cnn3c2CCC3)cc1` [Example 2, 1-(4-(5,6-dihydro-4H-pyrrolo[1,2-b]pyrazol-3-yl)phenyl)-3-(2-methoxyphenyl)urea], the IC50 in experiment [1] (setting [2]) is 25.1 nM.

Turning to `COc1ccccc1NC(=O)Nc1ccc(-c2cnn(C)c2)cc1` [Example 3, 1-(2-methoxyphenyl)-3-(4-(1-methyl-1H-pyrazol-4-yl)phenyl)urea], the IC50 in experiment [1] (setting [2]) was 33.6 nM.

As to `COc1ccccc1NC(=O)Nc1ccc(-c2cn(C)c3cnccc23)nc1` [Example 4, 1-(2-methoxyphenyl)-3-(6-(1-methyl-1H-pyrrolo[2,3-c]pyridin-3-yl)pyridin-3-yl)urea], the IC50 in experiment [1] (setting [2]) turned out to be 20.2 nM.

Take `Cn1cc(-c2ccc(NC(=O)Nc3ccccc3O)cn2)c2ccncc21` [Example 5, 1-(2-hydroxyphenyl)-3-(6-(1-methyl-1H-pyrrolo[2,3-c]pyridin-3-yl)pyridin-3-yl)urea]: in experiment [1] (setting [2]), the IC50 was 92 nM.

Regarding `[3H]c1cc(-c2cn(C)c3cnccc23)cc([3H])c1NC(=O)Nc1c([3H])cccc1OC` [Example 6, [^3H]-(2-methoxyphenyl)-3-(4-(1-methyl-1H-pyrrolo[2,3-c]pyridin-3-yl)phenyl)urea], the “binding to amyloid plaques in cortex region (autoradiography)” value with amyloid plaques is “lack of”. In addition, the “autoradiographic binding pattern compared with PHF6 stain of NFTs in hippocampus” value with NFTs (5 nM radioligand, human AD brain slice, adjacent slice IHC) is “consistent with the autoradiographic binding pattern”. The “specificity for Tau over Aβ (ARG evidence)” value in the experiment on NFTs (human AD brain slices, FIGS. 3 and 4) is reported as “measurable specificity”.
